# In ChEMBL document CHEMBL3885861, “Open TG-GATES”:
# Species: Rattus norvegicus
# Assay: Open TG-GATES - Regimen: Daily Repeat
# Format: toxicity, organism-based, Sprague-Dawley
# Design: regimen Daily Repeat, gender Male, age 6 weeks
# Details: in vivo, po, 5 mg/kg, route gavage, dose level Low; for APTT / Bas / Eos / Fbg / Hb / Ht / Lym / MCH / MCHC / MCV / Mono / Neu / PT / Plat / RBC / Ret / WBC: tissue Blood; for KIDNEY_L / KIDNEY_R / KIDNEY_TOTAL: tissue Kidney; for LIVER: tissue Liver; for A/G / ALP / ALT / AST / BUN / CRE / Ca / Cl / DBIL / GLC / IP / K / LDH / Na / PL / RALB / TBIL / TC / TG / TP / gamma-GTP: tissue Plasma
smiles,measurement,setting,value
CC1=C(CC(=O)O)c2cc(F)ccc2/C1=C\c1ccc([S+](C)[O-])cc1 (configuration not stated),TERMINAL_BW,"72 h, time 3 day",233.7 g
same,APTT,"72 h, time 3 day",15.8 s
same,Bas,"72 h, time 3 day",0%
same,Eos,"72 h, time 3 day",1%
same,Fbg,"72 h, time 3 day",306.2 mg/dL
same,Hb,"72 h, time 3 day",14.4 g/dL
same,Ht,"72 h, time 3 day",42.7%
same,Lym,"72 h, time 3 day",72.4%
same,MCH,"72 h, time 3 day",21.2 pg
same,MCHC,"72 h, time 3 day",33.8%
same,MCV,"72 h, time 3 day",62.7 fL
same,Mono,"72 h, time 3 day",2.4%
same,Neu,"72 h, time 3 day",23.8%
same,PT,"72 h, time 3 day",13.7 s
same,Plat,"72 h, time 3 day",128.2 x10_4/uL
same,RBC,"72 h, time 3 day",681.2 x10_4/ul
same,Ret,"72 h, time 3 day",6.8%
same,WBC,"72 h, time 3 day",91.3 x10_2/uL
same,KIDNEY_L,"72 h, time 3 day",1 g
same,KIDNEY_R,"72 h, time 3 day",1 g
same,KIDNEY_TOTAL,"72 h, time 3 day",1.9 g
same,LIVER,"72 h, time 3 day",11.2 g
same,A/G,"72 h, time 3 day",0.9
same,ALP,"72 h, time 3 day",1483.6 IU/L
same,ALT,"72 h, time 3 day",40.6 IU/L
same,AST,"72 h, time 3 day",67.8 IU/L
same,BUN,"72 h, time 3 day",15.2 mg/dL
same,CRE,"72 h, time 3 day",0.2 mg/dL
same,Ca,"72 h, time 3 day",11.1 mg/dL
same,Cl,"72 h, time 3 day",106.2 meq/L
same,DBIL,"72 h, time 3 day",0.01 mg/dL
same,GLC,"72 h, time 3 day",177 mg/dL
same,IP,"72 h, time 3 day",7.3 mg/dL
same,K,"72 h, time 3 day",4.2 meq/L
same,LDH,"72 h, time 3 day",76 IU/L
same,Na,"72 h, time 3 day",142 meq/L
same,PL,"72 h, time 3 day",168.2 mg/dL
same,RALB,"72 h, time 3 day",2.7 g/dL
same,TBIL,"72 h, time 3 day",0.018 mg/dL
same,TC,"72 h, time 3 day",88 mg/dL
same,TG,"72 h, time 3 day",121.8 mg/dL
same,TP,"72 h, time 3 day",5.6 g/dL
same,gamma-GTP,"72 h, time 3 day",1.2 IU/L
same,TERMINAL_BW,"[…], time 7 day",272.8 g
same,TERMINAL_BW,"[…], time 14 day",329.4 g
same,TERMINAL_BW,"[…], time 28 day",403.3 g
same,APTT,"[…], time 7 day",18.1 s
same,Bas,"[…], time 7 day",0%
same,Eos,"[…], time 7 day",1%
same,Fbg,"[…], time 7 day",300.2 mg/dL
same,Hb,"[…], time 7 day",14.2 g/dL
same,Ht,"[…], time 7 day",41.6%
same,Lym,"[…], time 7 day",79%
same,MCH,"[…], time 7 day",21.3 pg
same,MCHC,"[…], time 7 day",34.2%
same,MCV,"[…], time 7 day",62.3 fL
same,Mono,"[…], time 7 day",2%
same,Neu,"[…], time 7 day",17.4%
same,PT,"[…], time 7 day",13.7 s
same,Plat,"[…], time 7 day",134 x10_4/uL
same,RBC,"[…], time 7 day",667.8 x10_4/ul
same,Ret,"[…], time 7 day",5.8%
same,WBC,"[…], time 7 day",93.6 x10_2/uL
same,APTT,"[…], time 14 day",17.3 s
same,Bas,"[…], time 14 day",0%
same,Eos,"[…], time 14 day",1%
same,Fbg,"[…], time 14 day",321 mg/dL
same,Hb,"[…], time 14 day",15.5 g/dL
same,Ht,"[…], time 14 day",45.7%
same,Lym,"[…], time 14 day",77.2%
same,MCH,"[…], time 14 day",21.1 pg
same,MCHC,"[…], time 14 day",34%
same,MCV,"[…], time 14 day",62.1 fL
same,Mono,"[…], time 14 day",2.2%
same,Neu,"[…], time 14 day",18.6%
same,PT,"[…], time 14 day",13.8 s
same,Plat,"[…], time 14 day",123.9 x10_4/uL
same,RBC,"[…], time 14 day",737.2 x10_4/ul
same,Ret,"[…], time 14 day",4%
same,WBC,"[…], time 14 day",93.7 x10_2/uL
same,APTT,"[…], time 28 day",17.8 s
same,Bas,"[…], time 28 day",0%
same,Eos,"[…], time 28 day",1.4%
same,Fbg,"[…], time 28 day",292 mg/dL
same,Hb,"[…], time 28 day",15.4 g/dL
same,Ht,"[…], time 28 day",46.5%
same,Lym,"[…], time 28 day",79%
same,MCH,"[…], time 28 day",18.6 pg
same,MCHC,"[…], time 28 day",33.1%
same,MCV,"[…], time 28 day",56.4 fL
same,Mono,"[…], time 28 day",2%
same,Neu,"[…], time 28 day",17.4%
same,PT,"[…], time 28 day",12.8 s
same,Plat,"[…], time 28 day",112.3 x10_4/uL
same,RBC,"[…], time 28 day",826.8 x10_4/ul
same,Ret,"[…], time 28 day",2.6%
same,WBC,"[…], time 28 day",97.8 x10_2/uL
same,KIDNEY_L,"[…], time 7 day",1.2 g
same,KIDNEY_R,"[…], time 7 day",1.2 g
same,KIDNEY_TOTAL,"[…], time 7 day",2.3 g
same,KIDNEY_L,"[…], time 14 day",1.3 g
same,KIDNEY_R,"[…], time 14 day",1.3 g
same,KIDNEY_TOTAL,"[…], time 14 day",2.5 g
same,KIDNEY_L,"[…], time 28 day",1.4 g
same,KIDNEY_R,"[…], time 28 day",1.4 g
same,KIDNEY_TOTAL,"[…], time 28 day",2.8 g
same,LIVER,"[…], time 7 day",13.1 g
same,LIVER,"[…], time 14 day",14.3 g
same,LIVER,"[…], time 28 day",16.6 g
same,A/G,"[…], time 7 day",0.9
same,ALP,"[…], time 7 day",1462.4 IU/L
same,ALT,"[…], time 7 day",37.6 IU/L
same,AST,"[…], time 7 day",67.4 IU/L
same,BUN,"[…], time 7 day",17.6 mg/dL
same,CRE,"[…], time 7 day",0.2 mg/dL
same,Ca,"[…], time 7 day",11 mg/dL
same,Cl,"[…], time 7 day",104.2 meq/L
same,DBIL,"[…], time 7 day",0.012 mg/dL
same,GLC,"[…], time 7 day",183.6 mg/dL
same,IP,"[…], time 7 day",6.4 mg/dL
same,K,"[…], time 7 day",4.2 meq/L
same,LDH,"[…], time 7 day",98 IU/L
same,Na,"[…], time 7 day",140.6 meq/L
same,PL,"[…], time 7 day",156.6 mg/dL
same,RALB,"[…], time 7 day",2.7 g/dL
same,TBIL,"[…], time 7 day",0.022 mg/dL
same,TC,"[…], time 7 day",78.8 mg/dL
same,TG,"[…], time 7 day",122.4 mg/dL
same,TP,"[…], time 7 day",5.8 g/dL
same,gamma-GTP,"[…], time 7 day",1 IU/L
same,A/G,"[…], time 14 day",0.9
same,ALP,"[…], time 14 day",1448 IU/L
same,ALT,"[…], time 14 day",40 IU/L
same,AST,"[…], time 14 day",65.6 IU/L
same,BUN,"[…], time 14 day",16.4 mg/dL
same,CRE,"[…], time 14 day",0.2 mg/dL
same,Ca,"[…], time 14 day",11 mg/dL
same,Cl,"[…], time 14 day",105.4 meq/L
same,DBIL,"[…], time 14 day",0.01 mg/dL
same,GLC,"[…], time 14 day",177.2 mg/dL
same,IP,"[…], time 14 day",6.2 mg/dL
same,K,"[…], time 14 day",3.6 meq/L
same,LDH,"[…], time 14 day",62.4 IU/L
same,Na,"[…], time 14 day",143 meq/L
same,PL,"[…], time 14 day",163 mg/dL
same,RALB,"[…], time 14 day",2.8 g/dL
same,TBIL,"[…], time 14 day",0.044 mg/dL
same,TC,"[…], time 14 day",74.6 mg/dL
same,TG,"[…], time 14 day",153.8 mg/dL
same,TP,"[…], time 14 day",6 g/dL
same,gamma-GTP,"[…], time 14 day",1 IU/L
same,A/G,"[…], time 28 day",0.8
same,ALP,"[…], time 28 day",1234.6 IU/L
same,ALT,"[…], time 28 day",34.4 IU/L
same,AST,"[…], time 28 day",63.8 IU/L
same,BUN,"[…], time 28 day",17.4 mg/dL
same,CRE,"[…], time 28 day",0.3 mg/dL
same,Ca,"[…], time 28 day",10.6 mg/dL
same,Cl,"[…], time 28 day",103.8 meq/L
same,DBIL,"[…], time 28 day",0.014 mg/dL
same,GLC,"[…], time 28 day",187 mg/dL
same,IP,"[…], time 28 day",6.4 mg/dL
same,K,"[…], time 28 day",3.6 meq/L
same,LDH,"[…], time 28 day",72.8 IU/L
same,Na,"[…], time 28 day",142.8 meq/L
same,PL,"[…], time 28 day",164.8 mg/dL
same,RALB,"[…], time 28 day",2.8 g/dL
same,TBIL,"[…], time 28 day",0.08 mg/dL
same,TC,"[…], time 28 day",77.8 mg/dL
same,TG,"[…], time 28 day",195 mg/dL
same,TP,"[…], time 28 day",6.4 g/dL
same,gamma-GTP,"[…], time 28 day",1 IU/L
